Assay results published in patent US20030032636A1, “Combination of a serotonin reuptake inhibitor and a 5-HT2C antagonist, inverse agonist or partial agonist” (H. Lundbeck A/S, priority 1999, published 2003).

Key:
[1] = system: 5-HT levels in rat ventral hippocampus; test: Microdialysis, ventral hippocampus 5-HT levels; assay type: in vivo; conditions: for enhancement of the effect of citalopram on ventral hippocampal 5-HT levels: 1 μmol/kg simultaneous with 10 μmol/kg citalopram; for serotonin levels as measured in microdialysis experiments: administered alone (summary statement); for effect on rat ventral hippocampal 5-HT levels: 1 μmol/kg subcutaneous; for level of extracellular serotonin: in combination with SSRIs (summary statement)
Description: Male albino rats of a Wistar-derived strain (285-320 g; Harlan, Zeist, The Netherlands) were used for the experiments. The rats were housed in plastic cages (35×35×40 cm), and had free access to food and water. The experiments are concordant with the declarations of Helsinki and were approved by the Animal Care Committee of the Faculty of Mathematics and Natural Science of the University of Groningen.
The following drugs were used: Citalopram hydrobromide and internal standard (kindly donated by Lundbeck (Copenhagen, Denmark), courtesy Dr. Sanchez), ritanserin and ketanserin tartrate (RBI, Natick, USA). […] All drugs were administered in a volume of 1 mL per kg.
Microdialysis experiments were performed using home made I-shaped probes, made of polyacrylonitrile I sodium methyl sulphonate copolymer dialysis fiber (i.d. 220 μm, o.d. […], AN 69, Hospal, Italy). The exposed length of the membranes was 4 mm. […] Lidocaine-HCl, 10% (m/v) was used for local anaesthesia. Rats were placed in a stereotaxic frame (Kopf, USA), and probes were inserted into the ventral hippocampus (coordinates: IA: +3.7 mm, lateral: +4.8 mm, ventral: −8.0 mm from the dura mater, Paxinos and Watson, 1982) and secured with dental cement.
Probes were perfused with artificial CSF containing 147 mM NaCl, 3.0 mM KCl, 1.2 mM CaCl2, and 1.2 mM MgCl2, at a flow-rate of 1.5 μL/min (Harvard apparatus, South Natick, Ma., USA). Samples were collected on-line in a 20 μL loop and injected automatically onto the column every 15 min.
Serotonin analysis: 5-HT was analysed using HPLC with electrochemical detection. The HPLC pump (Shimadzu LC-10 AD liquid chromatograph) was connected to a reversed phase column (phenomenex hypersil 3: 3 μm, 100×2.0 mm, C18, Bester, Amstelveen, the Netherlands) followed by an electrochemical detector (Antec Leyden, Leiden, the Netherlands), working at a potential setting of 500 mV vs. Ag/AgCl reference. The mobile phase consisted of 5 g/L di-ammoniumsulfate, 500 mg/L ethylene diamino tetra acetic acid (EDTA), 50 mg/L heptane sulphonic acid and 30 μl/L of triethylamine, at a pH of 4.65 and 4.5% (w/w) methanol and water. Flow-rate of the mobile phase was 0.4 ml/min. The detection limit was 0.5 fmol 5-HT per 20 μL sample (signal to noise ratio 3).
Level of significance level was set at p<0. 05.

5-HT2C receptor = target: T1, 5-HT2C receptor (Rattus norvegicus, UniProt P08909); test: 5-HT2C binding (3H-Mesulergine, SR-3T3 cells); conditions: 0.5 nM 3H-Mesulergine
T1 construct: host or cells: SR-3T3 cells
T1 sequence (P08909 33-460): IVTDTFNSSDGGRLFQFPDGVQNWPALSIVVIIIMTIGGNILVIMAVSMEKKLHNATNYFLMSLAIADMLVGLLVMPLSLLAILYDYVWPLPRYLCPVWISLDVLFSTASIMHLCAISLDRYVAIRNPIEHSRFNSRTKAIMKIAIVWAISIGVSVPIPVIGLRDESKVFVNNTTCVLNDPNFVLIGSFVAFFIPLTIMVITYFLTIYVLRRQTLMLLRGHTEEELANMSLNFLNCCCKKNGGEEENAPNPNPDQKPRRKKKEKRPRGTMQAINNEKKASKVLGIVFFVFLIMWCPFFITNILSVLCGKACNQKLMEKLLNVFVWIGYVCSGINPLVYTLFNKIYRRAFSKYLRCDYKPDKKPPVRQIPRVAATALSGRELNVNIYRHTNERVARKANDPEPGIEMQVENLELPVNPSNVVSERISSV
Procedure: The cell suspension is centrifuged and the pellet resuspended in 50 mM Tris, HCl, pH 7.7 and stored at −80° C. For experimental use, the frozen cell pellet is thawed and homogenised with an Ultra Turrax for 10-15 seconds. 1.5 mg cell preparation is incubated with 0.5 nM 3H-Mesulergine for 60 minutes at 37° C. Incubation is terminated by rapid filtration through Filtermat B filters and bound radioactivity is determined in a Tricarb scintillation counter.

[2] = system: morphine-induced DA release in rat nucleus accumbens; conditions: cited from earlier work
[3] = system: levels of DA, NE and 5-HT in rat frontal cortex; conditions: cited from earlier work
in vivo = conditions: rat, sc
Description: In the pharmacokinetic experiments, blood was drawn through a canula made of silicon tubing, which was inserted into the right jugular vein for 3.8 cm. The tubing was transferred subcutaneously to the scull of the rat, and a stainless steel inlet was connected to the tubing. The inlet was mounted on the skull with dental cement and surgical screws. After insertion, canulas were filled with a PVP solution (55% polyvinylpyrrolidon in 500 IE/mL heparin) in saline to prevent blood clotting.
Pharmacokinetic experiments: Rats were allowed to recover for at least 24 h. […]
Citalopram analysis: Citalopram was measured according to Øyehaug et al. (1982), with minor modifications. […]
With the experiments in which 5 mL plasma was obtained via the vacutainer, a similar protocol was used, but the plasma sample was now extracted three times with 10 mL of ether. An HPLC/auto-injector (1084B Liquid Chromatograph, Hewlett-Packard) was used, in combination with a fluorescence detector (470 Scanning Fluorescence detector, Waters, England) operating at an absorption wavelength of 240 nm, an emission wavelength of 296 nm, and a slit-width of 12 nm. […]
Ketanserin analysis: Ketanserin was measured using liquid-liquid extraction, followed by reversed phase chromatography in conjunction with fluorescence detection. […]

[4] = system: mouse forced swimming test; conditions: prior administration; ritanserin 4 mg/kg i.p., ketanserin 8 mg/kg i.p.; cited from earlier work
[5] = system: prefrontal cortex 5-HT levels; test: Microdialysis, prefrontal cortex 5-HT levels; assay type: in vivo, rat
[6] = combined with fluoxetine; cited from earlier work
5-HT2C receptors = conditions: cited from earlier work
[7] = system: NE release in rat hippocampus; conditions: cited from earlier work

## Cc1ccc2c(c1)c(-c1ccc(F)cc1)c(C)n2C1CCN(CCN2CCNC2=O)CC1 [Lu 29066, 2,5-dimethyl-3-(4-fluorophenyl)-1-[1-[2-(imidazolidin-2-on-1-yl)ethyl]-piperidin-4-yl]-1H-indole]
[1]
  enhancement of the effect of citalopram on ventral hippocampal 5-HT levels: significant enhancement of the effect of citalopram
  serotonin levels as measured in microdialysis experiments: no increase
  level of extracellular serotonin: synergistically act to increase
[1]; alone
  effect on rat ventral hippocampal 5-HT levels: had no effect
5-HT2C receptor
  Ki: 6.9 nM

## Clc1cncc(N2CCNCC2)n1 [MK-212]
[2]
  morphine-induced DA release: inhibited

## COc1cc(OC)c(C(=O)CCCCN2CCC3(CC2)NC(=O)NC3=O)cc1NS(=O)(=O)c1ccc(C(F)(F)F)cc1 [RS 102221]
[1]
  enhancement of the effect of citalopram on ventral hippocampal 5-HT levels: significant enhancement of the effect of citalopram
  serotonin levels as measured in microdialysis experiments: no increase
  level of extracellular serotonin: synergistically act to increase
[1]; alone
  effect on rat ventral hippocampal 5-HT levels: had no effect
5-HT2C receptor
  Ki: 0.56 nM

## C[C@H](N)Cn1ccc2cc(F)c(Cl)cc21 [Ro 60-0175]
[3]
  levels of both DA and NE: suppressed
  levels of serotonin (5-HT): without modifying

## Cc1cc2c(cc1Cl)N(C(=O)Nc1ccc(Oc3cccnc3C)nc1)CC2 [SB-242084]
[3]
  levels of both DA and NE: increased
  levels of serotonin (5-HT): without modifying

## CN(C)CCCC1(c2ccc(F)cc2)OCc2cc(C#N)ccc21 (centres unmarked) [citalopram]
In vivo; 10 umol/kg
  half-life: ~2 h

## O=C1NCCN1CCN1CCN([C@@H]2C[C@@H](c3ccc(F)cc3)c3ccccc32)CC1 [irindalone]
5-HT2C receptor
  Ki: 19 nM

## O=C(c1ccc(F)cc1)C1CCN(CCn2c(=O)[nH]c3ccccc3c2=O)CC1 [ketanserin]
In vivo; 100 nmol/kg
  half-life: ~1.5 h
[4]
  potentiation of the effects of imipramine and desipramine (16 mg/kg i.p.): potentiated
[5]; 1 nmol/kg co-administered with citalopram
  augmentation of the citalopram induced increase in cortical 5-HT levels: did not augment
[5]; 10 nmol/kg co-administered with citalopram, effect did not reach significance
  augmentation of the citalopram induced increase in cortical 5-HT levels: transiently enhanced the effect of citalopram
[5]; 100 nmol/kg simultaneous with citalopram
  augmentation of the citalopram induced increase in cortical 5-HT levels: significant enhancement of the effect of citalopram
[5]; alone, dose not stated
  effect on prefrontal cortex 5-HT levels: did not show any effect
[1]; 1 nmol/kg co-administered with 10 μmol/kg citalopram
  augmentation of the effect of citalopram on ventral hippocampal 5-HT levels: did not augment the effect of citalopram
[1]; 10 nmol/kg co-administered with 10 μmol/kg citalopram
  augmentation of the effect of citalopram on ventral hippocampal 5-HT levels: significantly enhanced the effect of citalopram
[1]; 100 nmol/kg co-administered with 10 μmol/kg citalopram
  augmentation of the effect of citalopram on ventral hippocampal 5-HT levels: significantly enhanced the effect of citalopram
[1]; 100 nmol/kg simultaneous with 5 mg/kg fluoxetine
  enhancement of the effect of fluoxetine on ventral hippocampal 5-HT levels: significant enhancement of the effect of fluoxetine
[1]
  serotonin levels as measured in microdialysis experiments: no increase
  level of extracellular serotonin: synergistically act to increase
[1]; alone, 100 nmol/kg subcutaneous
  effect on ventral hippocampal 5-HT levels: had no effect
[1]; different doses, simultaneous with 10 μmol/kg citalopram
  augmentation of the SSRI induced increase in 5-HT levels, ventral hippocampus: dose dependent augmentation
5-HT2C receptor
  Ki: 14 nM

## CN1CCN2c3ccccc3Cc3ccccc3C2C1 (centres unmarked) [mianserin]
[6]
  efficacy of fluoxetine in the treatment of treatment resistant patients: augment the efficacy of fluoxetine
  latency of onset of antidepressive effect: may shorten the latency of onset

## CCc1nn(CCCN2CCN(c3cccc(Cl)c3)CC2)c(=O)n1CCOc1ccccc1 [nefazodone]
5-HT2C receptor
  Ki: 33 nM

## Fc1ccc([C@@H]2CCNC[C@H]2COc2ccc3c(c2)OCO3)cc1 [paroxetine]
5-HT2C receptors
  effect of chronic administration on 5-HT2C receptors: functional desensitisation

## Cc1nc2sccn2c(=O)c1CCN1CCC(=C(c2ccc(F)cc2)c2ccc(F)cc2)CC1 [ritanserin]
[4]
  potentiation of the effects of imipramine and desipramine (16 mg/kg i.p.): potentiated
[1]; 10 μmol/kg i.p. given 60 minutes prior to 10 μmol/kg s.c. citalopram
  augmentation of the effect of citalopram on ventral hippocampal 5-HT levels: augmented the effect of citalopram significantly
[1]; alone, 10 μmol/kg intraperitoneal
  effect on 5-HT levels in rat ventral hippocampus: did not have any effect
[1]
  level of extracellular serotonin: synergistically act to increase
[7]
  quipazine-induced decrease of NE release: antagonised
